# Measurements published in patent US8148320B2, “Peptide inhibitors of ABL kinases” (New York Blood Center, Inc., priority 2005, dated 2012).
# “Also recorded” adds a separate entry of the source. Where two headings read alike, the source gives them in different places. Where no end group is shown, it is not given here.
# Tests used:
# c-AbI kinase = c-AbI kinase assay with biotinylated model substrate peptide and 32P-γ-ATP; format: biochemical; conditions: for Fold Change (PEP): Vmax relative to PEP
# Description: (§1) AbI kinase. His-tagged, uncapped active c-AbI, E46 through C-terminus (isoform 1b) (kind gift of Tony Koleske, Yale University, New Haven, Conn.), was produced and purified from baculovirus as described (Tanis et al., 2003) following treatment of insect cells with 30 μM STI-571 (Novartis Pharma AG, Basel, Switzerland) for 48 hrs prior to cell lysis. The expressed protein was affinity purified on nickel-nitriloacetic acid agarose, washed to remove the inhibitor, and subsequently purified by ion-exchange chromatography using a Mono S column (Amersham Biosciences, Piscataway, N.J.). GST fusions of c-AbI SH2 domain wild type and SH2 domain containing the R171K mutation, and mammalian expression plasmid containing c-AbI-GST (isoform 1b, with the GST at the C-terminus) were obtained from Bruce Mayer (University of Connecticut Health Center, Farmington, Conn.).
# Kinase assay. Measurement of kinase activity was essentially as described in (Tanis et al., 2003), using biotinylated model substrate peptide GGEAIYAAPFKK (SEQ ID NO: 16), (Brasher and Van Etten, 2000; Songyang et al., 1995) and ^32P-γ-ATP. SAM2 streptavidin-coated membrane (Promega Corφoration, Madison Wis.) was used to capture the substrate. Kinase assay mixtures contained 50 mM Tris-HCI pH 7.5, 10 mM MgCl2, 1 mM EGTA, 2 mM dithiothreitol, 0.01% Brij 35, and 100 μM ATP, 2 nM AbI kinase, substrate peptides, and Abil ligand peptides as indicated. Reactions were carried out for 5 min. at 30° C. To evaluate c-AbI kinase activity in LnCAP cell lines, cells were treated with pervanadate for 10 min. prior to cell lysis, and immunoprecipitates from lysed cells were tested using GST-Crk as substrate.
# AbI SH2 domain = target: T1, AbI SH2 domain (Homo sapiens, UniProt P00519); assay: Surface plasmon resonance (Biacore) binding of biotinylated Abi1 peptides to GST-tagged AbI SH2 domain
# T1 construct: GST-tagged AbI SH2 domain; gift of Bruce Mayer (University of Connecticut Health Center)
# T1 sequence (P00519 127-217 limits assumed): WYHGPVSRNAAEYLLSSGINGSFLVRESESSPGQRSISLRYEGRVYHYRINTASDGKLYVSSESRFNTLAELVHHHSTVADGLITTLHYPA
# Description: as §1
# Surface Plasmon Resonance Assay. Surface plasmon resonance assay was performed using a Biacore 3000 instrument (BlAcore Inc., Piscataway, N.J.). Biotinylated 14-residue peptides, pY213 or Y213, were coupled to surface of streptavidin-coated (SA) biosensor chip (BIAcore Inc., Piscataway, N.J.). […] Sensograms (plots of changes in response unit on the surface as a function of time) derived were analyzed using the software BIAeval 3.0. […]
# [1] = increasing peptide concentrations, 100 μM substrate peptide
# [2] = concentrations lower than 2 mM, 100 μM substrate peptide
# [3] = peptide concentration 2 mM, 100 μM substrate peptide
substance,measurement,setting,value
"GGEAIYAAPFKK (also: biotinylated, site not given here) [PEP, reference compound]",Km,c-AbI kinase; Km of substrate peptide PEP alone,21.2 ± 3.37 µM
same,Fold Change (PEP),c-AbI kinase; PEP alone,1.00
same,Vmax,"c-AbI kinase; substrate peptide PEP alone, no Abi1 peptide, mean ± s.d., n=3",157.79 ± 9.29 pmol/min-μg
"Pro-F198: Abi1 peptide spanning residues 169-203 with Y198 to F198 replacement (GTLSRTNPPTQKPPSPPMSGRGTLGRNTPFKTLEP; UniProt Q8IZP0 169-203, looked up, variant Y198F)",effect on c-AbI kinase activity (in words),c-AbI kinase; [1],effect was lost
pY213: 14-residue Abi1 peptide containing phosphorylated tyrosine 213; Abi1 14-mer sequence vkpptvpndymtsp (SEQ ID NO:5) (VKPPTVPNDYMTSP),Kd,"AbI SH2 domain; peptide on SA chip, varying AbI SH2 concentration, 1:1 binding model, read-out: dissociation constant, KD",33.2 nM
Y213: 14-residue Abi1 peptide containing nonphosphorylated tyrosine 213 (VKPPTVPNDYMTSP; not fully specified) [Peptide Y213],effect on c-AbI kinase activity (in words),c-AbI kinase,showed inhibition; also recorded: most potent inhibition
same,Vmax,"c-AbI kinase; Abi1 peptide at 2 mM, 5-min assay, increasing substrate peptide, mean ± s.d., n=3",2.90 ± 1.16 pmol/min-μg
same,Km,"c-AbI kinase; Km of substrate peptide, Abi1 peptide at 2 mM",16.3 ± 0.6 µM
same,Km,"c-AbI kinase; Km of substrate peptide, Y213 at 0.1",14.9 ± 2.74 µM
same,Km,"c-AbI kinase; Km of substrate peptide, Y213 at 0.25",16.5 ± 7.29 µM
same,Fold Change (PEP),c-AbI kinase; Abi1 peptide at 2 mM,0.018
same,Fold Change (PEP),c-AbI kinase; Y213 at 0.1,0.71
same,Fold Change (PEP),c-AbI kinase; Y213 at 0.25,0.55
same,Vmax,c-AbI kinase; Y213 peptide at 0.1 (mM),112.11 ± 7.80 pmol/min-μg
same,Vmax,c-AbI kinase; Y213 peptide at 0.25,86.68 ± 19.71 pmol/min-μg
same,effect on c-AbI kinase activity (in words),c-AbI kinase; [2],significant kinase inhibition at lower concentrations than the pY213 peptide
same,effect on c-AbI kinase activity (in words),c-AbI kinase; [3],more significant reduction of the kinase activity than pY213
GTLSRTNPLTQKPPSPPMSGRGTLGRNTPYKTLEPVKPPTVPNDpYMTSP [Pro-pY213],effect on c-AbI kinase activity (in words),c-AbI kinase,showed inhibition
same,effect on c-AbI kinase activity (in words),c-AbI kinase; [2],no inhibition was observed
same,effect on c-AbI kinase activity (in words),c-AbI kinase; peptide 1.5 mM,decrease of activity
same,effect on c-AbI kinase activity (in words),c-AbI kinase; peptide 0.75 to 1.25 mM,increased the kinase activity
same,effect on c-AbI kinase activity (in words),c-AbI kinase; peptide 1.75 and 2 mM,inhibition
same,effect on c-AbI kinase activity (in words),c-AbI kinase; [3],enhanced the inhibitory effect
same,Kd (in words),"AbI SH2 domain; GST-SH2, Biacore, data not shown",low millimolar range
"Pro-Y198: Abi1 peptide spanning residues 169-203, with PXXP motif PPSPP and Y198, excludes pY213 sequence",effect on c-AbI kinase activity (in words),c-AbI kinase; [1],increased inhibition
